The results in this text go back to patent US11155530B2, “Urea-oxaziridines” (The Regents of the University of California, priority 2018, dated 2021).

A short description of this series: Stability of redox conjugation product-sulfimide. The format is physicochemical. Particulars: salt form formed from S3 under strong acidic condition (1 N HCl); co-solvent d-MeOD/D2O=1:1; monitored by NMR after 1 h and 18 h. As to the method:
The stability of sulfimides were tested by treatment of sulfimides S2 with 5 mM TCEP or treatment of sulfimides S3 with 1 N HCl, 1 N NaOH or 80° C. in co-solvent (d-MeOD/D2O=1:1). The reactions were monitored by NMR after 1 h and 18 h and the reaction conversions were calculated based on NMR data. Sulfimide S3 can be protonated under strong acidic condition to its salt form S4, which is stable in aqueous solution.

In the case of `CCNC(=O)N[S+](C)c1ccccc1.[Cl-]` (stereo not shown) [Compound S4], the “stability in aqueous solution” value is listed as “stable”.
